Source: US20230372318A1, “METHODS FOR TREATING A SUBJECT HAVING MULTIPLE SYSTEM ATROPHY” (Theravance Biopharma R&D IP, LLC, priority 2022, published 2023)

What was measured:
[1] = target: T1, cytochrome P450 1A2 (CYP1A2) (Homo sapiens, UniProt P05177); details: healthy subjects, cited from earlier work
T1 construct: from tissue; host or cells: in vivo, healthy human subjects (as reported in Kanodia et al. 2021)

SERT = target: T2, SERT (Rattus norvegicus, UniProt P31652); experiment: Ex vivo transporter occupancy in rat spinal cord (SERT)
T2 construct: from tissue; host or cells: lumbar spinal cord of orally dosed male Sprague Dawley rats
Protocol: Adult male Sprague Dawley rats (Charles River) were housed under controlled laboratory conditions (temperature at 21±1° C.) on a 12:12 hour light-dark cycle. Animals were given free access to food and water upon arrival to the facility and animals were acclimatized to their holding room for at least 48 hours. Animals were fasted but allowed free access to water for 15-18 hours prior to dosing.
Rats (n=6/timepoint/dose level) received a single oral dose of 4-[2-(2,4,6-trifluorophenoxymethyl)phenyl]piperidine (0.3, 1, 5, 10, 30, and 60 mg/kg) and were euthanized by decapitation at specified time points (0.5, 2, 4, 6, and 8 hr for 5 mg/kg dose level; 2 hr for 0.3, 1, 10, 30, and 60 mg/kg dose levels) post-administration. Spinal cords were dissected for ex vivo transporter occupancy and PK assessments from the same animals. The spinal cord was harvested by hydraulic extrusion using phosphate-buffered saline, and the lumbar segment dissected and frozen on dry ice. The remaining spinal cord segments were collected and homogenized in water (25% w/w) for PK analysis. All samples were stored at −80° C. until analysis.
A kinetic radioligand binding assay was used to determine NET and SERT occupancy in rat spinal cord, as described previously in Bourdet et al., J. Pharm. Exp. Ther. (2012) 341:137-145. PK/PD parameters were estimated by a compartmental modeling approach (WinNonlin Version 5.0.1, Pharsight Corporation). One- and two-compartment PK models with first-order absorption and elimination were evaluated. The one-compartment model was selected. The pharmacodynamics model was an effect compartment Emax model linked directly to the central PK compartment (WinNonlin PK Model 3, PD Model 101). Selection of models was based upon best fit in terms of visual inspection, Akaike Information Criteria, and weighted residual sum of squares using the Gauss-Newton minimization method.

human recombinant SERT = target: T3, human recombinant SERT (Homo sapiens, UniProt P31645); experiment: Radioligand binding, [3H]-citalopram, HEK293-hSERT membranes; details: mean (95% confidence intervals)
T3 construct: expressed in transfected cells; host or cells: HEK293
Source text: (§1) The in vitro pharmacology of ampreloxetine at human recombinant and rat native monoamine transporters was characterized as described in Smith et al., Inter. J. Neuropsychopharmcol. (2015) 1-11; and Tsuruda et al., J. Pharmacol. Toxicol. Meth. (2010) 61:192-204. See also, e.g., U.S. Pat. Nos. 8,304,432 B2 and 8,304,433 B2. Radioligands were sourced commercially (Perkin Elmer LifeSciences or GE Healthcare Life Sciences).
(§2) Briefly, membranes prepared from HEK293 (Human Embryonic Kidney 293) or CHO-K1 (Chinese Hamster Ovary-K1) cells stably transfected with human recombinant SERT (HEK293-hSERT), NET (HEK293-hNET), or DAT (CHO-K1-hDAT) were incubated for 1 hr at 22° C. in the absence, or presence, of 4-[2-(2,4,6-trifluorophenoxymethyl)phenyl]piperidine and [^3H]-citalopram (1.0 nM) for SERT, [^3H]-nisoxetine (2.0 nM) for NET, and [^3H]-WIN35428 (3.0 nM) for DAT in 50 mM Tris-HCl, 120 mM NaCl, 5 mM KCl, 0.025% BSA, 100 μM ascorbic acid, pH 7.4. Rat cortical membrane preparations were incubated with [^3H]-citalopram (2.0 nM) for SERT or [^3H]-nisoxetine (4.0 nM) for NET for 1 hr at 22° C. […] Binding and uptake assays were terminated by rapid filtration and radioactivity determined by liquid scintillation spectroscopy. […] Selectivity for NET (rounded to one significant figure) was determined as follows: […]

human recombinant DAT = target: T4, human recombinant DAT (Homo sapiens, UniProt Q01959); experiment: Radioligand binding, [3H]-WIN35428, CHO-K1-hDAT membranes; details: mean
T4 construct: expressed in transfected cells; host or cells: CHO-K1
Source text: as §1, §2

plasma protein [2] = experiment: Plasma protein binding, rat; assay type: in vitro ADME
plasma protein [3] = experiment: Plasma protein binding, human; assay type: in vitro ADME

T2 sequence (P31652 whole entry): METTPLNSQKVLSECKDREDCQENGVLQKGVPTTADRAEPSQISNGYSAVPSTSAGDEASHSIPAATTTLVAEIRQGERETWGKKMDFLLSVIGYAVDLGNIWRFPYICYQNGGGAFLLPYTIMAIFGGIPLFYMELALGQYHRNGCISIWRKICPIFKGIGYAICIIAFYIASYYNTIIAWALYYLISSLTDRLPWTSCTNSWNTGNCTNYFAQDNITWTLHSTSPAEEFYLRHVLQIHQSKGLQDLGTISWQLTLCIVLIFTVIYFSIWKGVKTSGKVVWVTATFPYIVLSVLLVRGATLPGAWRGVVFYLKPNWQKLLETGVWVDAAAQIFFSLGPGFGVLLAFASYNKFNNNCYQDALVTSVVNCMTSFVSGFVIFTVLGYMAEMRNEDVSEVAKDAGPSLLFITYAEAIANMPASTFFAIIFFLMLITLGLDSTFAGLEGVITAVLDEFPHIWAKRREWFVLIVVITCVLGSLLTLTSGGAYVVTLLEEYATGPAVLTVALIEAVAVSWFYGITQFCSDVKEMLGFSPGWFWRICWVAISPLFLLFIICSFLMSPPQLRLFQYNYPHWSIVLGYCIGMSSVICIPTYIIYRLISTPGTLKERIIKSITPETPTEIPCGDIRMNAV
T1 sequence (P05177 whole entry): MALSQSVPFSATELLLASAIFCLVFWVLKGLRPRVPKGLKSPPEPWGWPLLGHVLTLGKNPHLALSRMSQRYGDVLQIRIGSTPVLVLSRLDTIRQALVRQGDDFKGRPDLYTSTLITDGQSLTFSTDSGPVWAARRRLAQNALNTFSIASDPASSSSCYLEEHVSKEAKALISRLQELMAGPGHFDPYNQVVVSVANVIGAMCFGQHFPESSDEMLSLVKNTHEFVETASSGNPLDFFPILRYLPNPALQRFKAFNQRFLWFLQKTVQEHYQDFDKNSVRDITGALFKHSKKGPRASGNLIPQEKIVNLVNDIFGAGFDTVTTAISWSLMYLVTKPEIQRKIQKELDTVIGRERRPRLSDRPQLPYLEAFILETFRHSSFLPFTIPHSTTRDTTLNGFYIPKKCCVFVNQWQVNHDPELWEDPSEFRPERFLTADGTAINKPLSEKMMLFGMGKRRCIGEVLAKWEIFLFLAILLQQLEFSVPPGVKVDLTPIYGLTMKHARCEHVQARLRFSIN
T3 sequence (P31645 whole entry): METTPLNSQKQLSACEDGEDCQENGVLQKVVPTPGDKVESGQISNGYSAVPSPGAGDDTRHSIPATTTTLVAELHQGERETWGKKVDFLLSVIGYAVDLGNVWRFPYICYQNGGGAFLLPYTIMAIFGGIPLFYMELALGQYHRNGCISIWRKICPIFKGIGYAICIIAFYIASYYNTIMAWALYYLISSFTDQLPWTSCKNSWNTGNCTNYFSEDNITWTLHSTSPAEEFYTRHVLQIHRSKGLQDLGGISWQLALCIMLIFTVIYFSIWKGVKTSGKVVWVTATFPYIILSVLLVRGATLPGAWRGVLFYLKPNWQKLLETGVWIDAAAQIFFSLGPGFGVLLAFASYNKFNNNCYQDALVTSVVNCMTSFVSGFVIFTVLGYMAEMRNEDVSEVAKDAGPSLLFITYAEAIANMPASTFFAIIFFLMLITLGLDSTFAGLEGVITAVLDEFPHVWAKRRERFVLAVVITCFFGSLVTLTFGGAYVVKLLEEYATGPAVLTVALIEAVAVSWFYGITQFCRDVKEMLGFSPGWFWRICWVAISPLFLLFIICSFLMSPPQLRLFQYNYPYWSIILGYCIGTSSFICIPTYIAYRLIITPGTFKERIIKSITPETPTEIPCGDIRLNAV
T4 sequence (Q01959 whole entry): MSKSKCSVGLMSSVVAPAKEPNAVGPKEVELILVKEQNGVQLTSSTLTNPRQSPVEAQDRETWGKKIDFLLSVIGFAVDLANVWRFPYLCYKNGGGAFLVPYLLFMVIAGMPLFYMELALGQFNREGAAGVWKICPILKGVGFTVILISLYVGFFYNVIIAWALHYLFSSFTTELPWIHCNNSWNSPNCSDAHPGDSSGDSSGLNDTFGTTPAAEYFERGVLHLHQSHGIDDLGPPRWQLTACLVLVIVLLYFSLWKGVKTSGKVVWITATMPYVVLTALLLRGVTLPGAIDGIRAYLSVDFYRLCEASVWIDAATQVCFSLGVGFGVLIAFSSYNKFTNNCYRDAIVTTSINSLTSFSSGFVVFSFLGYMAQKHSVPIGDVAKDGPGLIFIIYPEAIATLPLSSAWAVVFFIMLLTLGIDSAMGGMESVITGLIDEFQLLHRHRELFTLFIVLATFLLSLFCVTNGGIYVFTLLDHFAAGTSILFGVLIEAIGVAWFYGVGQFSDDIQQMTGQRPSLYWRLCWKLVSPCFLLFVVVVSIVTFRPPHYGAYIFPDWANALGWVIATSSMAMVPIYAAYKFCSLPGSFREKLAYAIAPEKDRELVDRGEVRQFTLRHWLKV

For `Fc1cc(F)c(OCc2ccccc2C2CCNCC2)c(F)c1` [Ampreloxetine, 4-[2-(2,4,6-trifluorophenoxymethyl)phenyl]piperidine], the “Enzyme responsible for metabolism” value ([1]; CYP1A2) is given as “primary enzyme responsible for ampreloxetine metabolism”, the “Fraction eliminated through metabolism” value [1] is given as greater than 90% and the “EC50, plasma concentration associated with 50% SERT occupancy” value (SERT; rat spinal cord, oral dose) is given as 50.8 ng/mL. The “Emax, maximal SERT occupancy in spinal cord” value (SERT; rat, single oral dose, effect compartment PK/PD model) was 79.0 % occupancy, the “keo, first-order equilibration rate constant, SERT” value (SERT; rat, central PK compartment to effect compartment) was 11.0 h⁻¹ and the “Transporter Binding: pKi, SERT” value (human recombinant SERT) was 8.5 (8.5, 8.6). The “Transporter Binding: pKi, DAT” value (human recombinant DAT) was 6.7, the Plasma protein binding (plasma protein [2]) was 90.2% and the Plasma protein binding (plasma protein [3]) was 79.1%.
